Data on 30 molecules can be found in patent US10336739B2, “4-hydroxy-3-(heteroaryl)pyridine-2-one APJ agonists” (BRISTOL-MYERS SQUIBB COMPANY, priority 2015, dated 2019).

By EC50 is commonly meant the concentration giving half of the maximal effect.

Like-named read-outs stand apart in the source and are kept apart here.

This assay has as its target human APJ receptor (Homo sapiens (Human), UniProt P35414). The assay is described as follows: Intracellular cAMP accumulation assay (APJ hcAMP, HTRF). It is filed as cell-based. As to conditions: HEK293 cells stably expressing human APJ receptor, inhibition of forskolin-mediated cAMP production. Put shortly: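 cAMP inhibition was quantified by HTRF against a cAMP standard curve, with EC50 fitted to a variable-slope sigmoidal curve. Compounds acted on 5,000 APJ-stable HEK293 cells for 30 minutes at room temperature alongside 2 μM forskolin and […] IBMX. Detection reagents were incubated 60 min.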
On the technique in general: Changes in cAMP serve as a functional read-out for many G protein-coupled receptors.

[1] abbreviates: read-out: hAPJ cAMP EC50 Potency range.

Chain of human APJ receptor (P35414 whole entry): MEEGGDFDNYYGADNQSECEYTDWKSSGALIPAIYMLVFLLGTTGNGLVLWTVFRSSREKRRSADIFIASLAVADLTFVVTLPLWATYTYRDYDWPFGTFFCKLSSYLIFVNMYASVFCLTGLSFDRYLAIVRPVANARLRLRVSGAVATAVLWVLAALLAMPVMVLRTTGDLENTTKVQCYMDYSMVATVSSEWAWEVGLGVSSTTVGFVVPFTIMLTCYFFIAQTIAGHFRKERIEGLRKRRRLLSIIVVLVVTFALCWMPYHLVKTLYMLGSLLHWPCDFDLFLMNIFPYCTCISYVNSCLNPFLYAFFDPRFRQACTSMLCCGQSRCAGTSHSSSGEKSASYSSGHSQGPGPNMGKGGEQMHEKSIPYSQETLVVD

Consider `CCCCc1nc(O)c(-c2nnc(CC(=O)OC(C)(C)C)o2)c(O)c1-c1c(OC)cccc1OC` [Example 118, tert-butyl 2-{5-[6-butyl-5-(2,6-dimethoxyphenyl)-2,4-dihydroxypyridin-3-yl]-1,3,4-oxadiazol-2-yl}acetate], for which the EC50 under setting [1] lay in the range of 0.01 to 10 nM.
In the case of `CCOCc1nc(O)c(-c2nnc(Cn3ccccc3=O)o2)c(O)c1-c1c(OC)cccc1OC` [Example 119, 1-({5-[5-(2,6-dimethoxyphenyl)-6-(ethoxymethyl)-2,4-dihydroxypyridin-3-yl]-1,3,4-oxadiazol-2-yl}methyl)-1,2-dihydropyridin-2-one], the 50% effective concentration (EC50) under setting [1] fell in the range of 0.01 to 10 nM.
Turning to `CCCCc1nc(O)c(-c2nnc(CNC(=O)OC(C)(C)C)o2)c(O)c1-c1c(OC)cccc1OC` [Example 120, tert-butyl N-({5-[6-butyl-5-(2,6-dimethoxyphenyl)-2,4-dihydroxypyridin-3-yl]-1,3,4-oxadiazol-2-yl}methyl) carbamate], under setting [1], the concentration for a half-maximal effect (EC50) was 10 to 100 nM.
Molecule `CCCCc1nc(O)c(-c2nnc(CN(C)C(=O)OC(C)(C)C)o2)c(O)c1-c1c(OC)cccc1OC` [Example 121, tert-butyl N-({5-[6-butyl-5-(2,6-dimethoxyphenyl)-2,4-dihydroxypyridin-3-yl]-1,3,4-oxadiazol-2-yl}methyl)-N-methylcarbamate] showed an EC50 (hAPJ cAMP EC50 Potency range (nM)) of 10 to 100 nM.
Consider `CCOCc1nc(O)c(-c2nnc(Cc3ccc(Cl)c(F)c3)o2)c(O)c1-c1c(OC)cccc1OC` [Example 122, 3-{5-[(4-chloro-3-fluorophenyl)methyl]-1,3,4-oxadiazol-2-yl}-5-(2,6-dimethoxyphenyl)-6-(ethoxymethyl) pyridine-2,4-diol], for which the half-maximal effective concentration (EC50) under setting [1] lay within 0.01 to 10 nM.
The same measure, in the same setting: in the case of `CCOCc1nc(O)c(-c2nnc(Cc3ccc(Cl)cc3F)o2)c(O)c1-c1c(OC)cccc1OC` [Example 123, 3-{5-[(4-chloro-2-fluorophenyl)methyl]-1,3,4-oxadiazol-2-yl}-5-(2,6-dimethoxyphenyl)-6-(ethoxymethyl) pyridine-2,4-diol] it was 0.01 to 10 nM; in that of `CCOCc1nc(O)c(-c2nnc(Cc3ccc(F)cn3)o2)c(O)c1-c1c(OC)cccc1OC` [Example 124, 5-(2,6-dimethoxyphenyl)-6-(ethoxymethyl)-3-{5-[(5-fluoropyridin-2-yl)methyl]-1,3,4-oxadiazol-2-yl}pyridine-2,4-diol], 0.01 to 10 nM.
Take `CCOCc1nc(O)c(-c2nnc(Cn3ccnc3)o2)c(O)c1-c1c(OC)cccc1OC` [Example 125, 5-(2,6-dimethoxyphenyl)-6-(ethoxymethyl)-3-[5-(1H-imidazol-1-ylmethyl)-1,3,4-oxadiazol-2-yl]pyridine-2,4-diol]: the EC50 under setting [1] was 10 to 100 nM.
Turning to `CCOCc1nc(O)c(-c2nnc(Cc3ccc(C)c(F)c3)o2)c(O)c1-c1c(OC)cccc1OC` [Example 126, 5-(2,6-dimethoxyphenyl)-6-(ethoxymethyl)-3-{5-[(3-fluoro-4-methylphenyl)methyl]-1,3,4-oxadiazol-2-yl}pyridine-2,4-diol], the EC50 under setting [1] fell in the range of 0.01 to 10 nM.
As for `CCOCc1nc(O)c(-c2nnc(Cc3ccc(Cl)cn3)o2)c(O)c1-c1c(OC)cccc1OC` [Example 127, 3-{5-[(5-chloropyridin-2-yl)methyl]-1,3,4-oxadiazol-2-yl}-5-(2,6-dimethoxyphenyl)-6-(ethoxymethyl) pyridine-2,4-diol], the EC50 under setting [1] lay in the range of 0.01 to 10 nM.
Still for that read-out and setting: next, `CCOCc1nc(O)c(-c2nnc(Cn3ccc(-c4ccccc4)n3)o2)c(O)c1-c1c(OC)cccc1OC` [Example 128, 5-(2,6-dimethoxyphenyl)-6-(ethoxymethyl)-3-{5-[(3-phenyl-1H-pyrazol-1-yl)methyl]-1,3,4-oxadiazol-2-yl}pyridine-2,4-diol]: 0.01 to 10 nM.
Take `CCOCc1nc(O)c(-c2nnc(Cn3ccc(C(F)(F)F)n3)o2)c(O)c1-c1c(OC)cccc1OC` [Example 129, 5-(2,6-dimethoxyphenyl)-6-(ethoxymethyl)-3-(5-{[3-(trifluoromethyl)-1H-pyrazol-1-yl]methyl}-1,3,4-oxadiazol-2-yl)pyridine-2,4-diol]: the EC50 under setting [1] lay within 10 to 100 nM.
Same read-out and setting: in the case of `CCOCc1nc(O)c(-c2nnc(Cc3cnn(C)c3)o2)c(O)c1-c1c(OC)cccc1OC` [Example 130, 5-(2,6-dimethoxyphenyl)-6-(ethoxymethyl)-3-{5-[(1-methyl-1H-pyrazol-4-yl)methyl]-1,3,4-oxadiazol-2-yl}pyridine-2,4-diol] it was 10 to 100 nM; in that of `CCOCc1nc(O)c(-c2nnc(Cc3ccc(F)nc3)o2)c(O)c1-c1c(OC)cccc1OC` [Example 131, 5-(2,6-dimethoxyphenyl)-6-(ethoxymethyl)-3-{5-[(6-fluoropyridin-3-yl)methyl]-1,3,4-oxadiazol-2-yl}pyridine-2,4-diol], 0.01 to 10 nM.
Consider `CCOCc1nc(O)c(-c2nnc(Cc3n[nH]c4ccccc34)o2)c(O)c1-c1c(OC)cccc1OC` [Example 132, 5-(2,6-dimethoxyphenyl)-6-(ethoxymethyl)-3-[5-(1H-indazol-3-ylmethyl)-1,3,4-oxadiazol-2-yl]pyridine-2,4-diol], for which, under setting [1], the EC50 was 0.01 to 10 nM.
In the case of `CCOCc1nc(O)c(-c2nnc(Cn3nnc4ccccc43)o2)c(O)c1-c1c(OC)cccc1OC` [Example 133, 3-[5-(1H-1,2,3-benzotriazol-1-ylmethyl)-1,3,4-oxadiazol-2-yl]-5-(2,6-dimethoxyphenyl)-6-(ethoxymethyl) pyridine-2,4-diol], the EC50 under setting [1] lay in the range of 0.01 to 10 nM.
As for `CCOCc1nc(O)c(-c2nnc(Cn3ncc4ccccc43)o2)c(O)c1-c1c(OC)cccc1OC` [Example 134, 5-(2,6-dimethoxyphenyl)-6-(ethoxymethyl)-3-[5-(1H-indazol-1-ylmethyl)-1,3,4-oxadiazol-2-yl]pyridine-2,4-diol], under setting [1], the EC50 is 0.01 to 10 nM.
In the case of `CCOCc1nc(O)c(-c2nnc(Cc3ccc(F)cc3)o2)c(O)c1-c1c(OC)cccc1OC` [Example 135, 5-(2,6-dimethoxyphenyl)-6-(ethoxymethyl)-3-{5-[(4-fluorophenyl)methyl]-1,3,4-oxadiazol-2-yl}pyridine-2,4-diol], under setting [1], the EC50 is 0.01 to 10 nM.
For `CCOCc1nc(O)c(-c2nnc(Cn3ccc4ccccc43)o2)c(O)c1-c1c(OC)cccc1OC` [Example 136, 5-(2,6-dimethoxyphenyl)-6-(ethoxymethyl)-3-[5-(1H-indol-1-ylmethyl)-1,3,4-oxadiazol-2-yl]pyridine-2,4-diol], the EC50 under setting [1] was 10 to 100 nM.
For `CCCCc1[nH]c(=O)c(-c2nnc(Cc3csc(C)n3)o2)c(O)c1-c1cccc(CC)c1` [Example 137, 6-butyl-5-(3-ethylphenyl)-4-hydroxy-3-{5-[(2-methyl-1,3-thiazol-4-yl)methyl]-1,3,4-oxadiazol-2-yl}-1,2-dihydropyridin-2-one], the EC50 (read-out: Human APJ cAMP EC50 Potency range) was in the range of 10 to 100 nM.
As to `CCCCc1nc(O)c(-c2nnc(Cc3noc4ccccc34)o2)c(O)c1-c1ccccc1` [Example 138, 3-[5-(1,2-benzoxazol-3-ylmethyl)-1,3,4-oxadiazol-2-yl]-6-butyl-5-phenylpyridine-2,4-diol], under setting [1], the concentration giving a half-maximal response (EC50) was in the range of 10 to 100 nM.
`CCCCc1nc(O)c(-c2nnc(Cc3ccc(F)c(F)c3)o2)c(O)c1-c1cccc(OC)c1` [Example 139, 6-butyl-3-{5-[(3,4-difluorophenyl)methyl]-1,3,4-oxadiazol-2-yl}-5-(3-methoxyphenyl) pyridine-2,4-diol]: the EC50 under setting [1] lay within 10 to 100 nM.
On to `CCCCc1nc(O)c(-c2nnc(Cc3ccc(F)c(F)c3)o2)c(O)c1-c1cccc(CC)c1` [Example 140, 6-butyl-3-{5-[(3,4-difluorophenyl)methyl]-1,3,4-oxadiazol-2-yl}-5-(3-ethylphenyl) pyridine-2,4-diol], for which the EC50 under setting [1] was in the range of 10 to 100 nM.
Turning to `CCCCc1nc(O)c(-c2nnc(Cc3ccc(F)c(F)c3)o2)c(O)c1-c1cccc(OC(F)(F)F)c1` [Example 141, 6-butyl-3-{5-[(3,4-difluorophenyl)methyl]-1,3,4-oxadiazol-2-yl}-5-[3-(trifluoromethoxy)phenyl]pyridine-2,4-diol], under setting [1], the EC50 was in the range of 10 to 100 nM.
`CCCCc1nc(O)c(-c2nnc(Cc3ccc(F)c(F)c3)o2)c(O)c1-c1cccc(OCc2ccccc2)c1` [Example 142, 5-[3-(benzyloxy)phenyl]-6-butyl-3-{5-[(3,4-difluorophenyl)methyl]-1,3,4-oxadiazol-2-yl}pyridine-2,4-diol]: under setting [1], the concentration giving a half-maximal response (EC50) lay in the range of 10 to 100 nM.
With `CCCCc1nc(O)c(-c2nnc(Cc3ccc(F)c(F)c3)o2)c(O)c1-c1cccc(CO)c1` [Example 143, 6-butyl-3-{5-[(3,4-difluorophenyl)methyl]-1,3,4-oxadiazol-2-yl}-5-[3-(hydroxymethyl)phenyl]pyridine-2,4-diol], under setting [1], the EC50 lay within 0.01 to 10 nM.
As for `CCCCc1nc(O)c(-c2nnc(Cc3ccc(F)c(F)c3)o2)c(O)c1C1=CCCCC1` [Example 144, 6-butyl-5-(cyclohex-1-en-1-yl)-3-{5-[(3,4-difluorophenyl)methyl]-1,3,4-oxadiazol-2-yl}pyridine-2,4-diol], under setting [1], the 50% effective concentration (EC50) was 10 to 100 nM.
For `CCCCc1nc(O)c(-c2nnc(Cc3ccc(F)c(F)c3)o2)c(O)c1-c1cccc(C(C)C)c1` [Example 145, 6-butyl-3-{5-[(3,4-difluorophenyl)methyl]-1,3,4-oxadiazol-2-yl}-5-[3-(propan-2-yl)phenyl]pyridine-2,4-diol], under setting [1], the EC50 lay within 10 to 100 nM.
For the molecule `CCCCc1nc(O)c(-c2nnc(Cc3ccc(F)c(F)c3)o2)c(O)c1-c1cccc(COC)c1` [Example 146, 6-butyl-3-{5-[(3,4-difluorophenyl)methyl]-1,3,4-oxadiazol-2-yl}-5-[3-(methoxymethyl)phenyl]pyridine-2,4-diol], the EC50 under setting [1] was in the range of 10 to 100 nM.
In the case of `CCCCc1nc(O)c(-c2nnc(Cc3ccc(F)c(F)c3)o2)c(O)c1-c1cccc(C(=O)NC(C)C)c1` [Example 147, 3-(2-butyl-5-{5-[(3,4-difluorophenyl)methyl]-1,3,4-oxadiazol-2-yl}-4,6-dihydroxypyridin-3-yl)-N-(propan-2-yl)benzamide], the EC50 under setting [1] lay within 10 to 100 nM.
